These compounds were tested on Per2-dLuc U2OS reporter cells (assay: Per2 assay for evaluating the potency of test compounds (high-throughput circadian assay)). Conditions: Homo sapiens, U2OS, stable U2OS reporter cells harboring Per2-dLuc; luminescence monitored over 4-5 days at 35° C.
Assay type: cell-based
Description: Compounds were screened by using a high-throughput circadian assay system as previously described in Zhang, E. E. et al. Cell, 2009, 139, 199-210. In brief, stable U2OS reporter cells harboring Per2-dLuc were plated at a density of 8,000 cells/well in Corning 96-well, solid white, flat bottom, TC-treated microplates (Corning®), and incubated for 24 hours at 37° C. in the presence of 5% CO2. The cells were then synchronized by serum shock by media exchange to a minimal explant media (10 mM HEPES (pH 7.0), 2% B27, 1×PSG (Invitrogen®), and 1.0 mM beetle luciferin (Promega®)) followed by the addition of the compounds of formula I dissolved in dimethylsulfoxide (0.5% final dimethylsulfoxide concentration). Gene expression was monitored by measuring luminescence (TecanR M200) over 4-5 days at 35° C. The period, amplitude, and phase of the associated circadian rhythms were determined using Multicycle™ software (Actimetrics, Inc). EC50 values of the compounds of formula I were calculated using Graphpad™ (Prism®).

Structure (SMILES) | EC50 [nM]
CC1(N(CC(O)Cn2c3ccccc3c3ccccc32)S(C)(=O)=O)CCCC1 (stereo not drawn) [Compound 143, N-(3-(9H-Carbazol-9-yl)-2-hydroxypropyl)-N-(1-methylcyclopentyl)methanesulfonamide] | 28
CC(C)c1ccc(N(CC(O)Cn2c3ccc(F)cc3c3cc(F)ccc32)S(C)(=O)=O)cc1 (stereo not drawn) [Compound 205, N-(3-(3,6-Difluoro-9H-carbazol-9-yl)-2-hydroxypropyl)-N-(4-isopropylphenyl)methanesulfonamide] | 1210
CC1CCCC1N(CC(O)Cn1c2ccc(F)cc2c2cc(F)ccc21)S(C)(=O)=O (stereo not drawn) [Compound 193A, N-(3-(3,6-Difluoro-9H-carbazol-9-yl)-2-hydroxypropyl)-N-(2-methylcyclopentyl)methanesulfonamide] | 427
CC(O)(CN1CCCN(C2CCCC2)S1(=O)=O)Cn1c2ccc(F)cc2c2cc(F)ccc21 (stereo not drawn) [Compound 221, 2-(3-(3,6-Difluoro-9H-carbazol-9-yl)-2-hydroxy-2-methylpropyl)-6-cyclopentyl-1,2,6-thiadiazinane-1,1-dioxide] | 5520
CS(=O)(=O)N(CC(O)Cn1c2ccccc2c2ccccc21)c1ccc(Br)cc1 (stereo not drawn) [Compound 28, N-(3-(9H-Carbazol-9-yl)-2-hydroxypropyl)-N-(4-bromophenyl)methanesulfonamide] | 2090
CS(=O)(=O)N(CCc1ccccc1)CC(O)Cn1c2ccccc2c2ccccc21 (stereo not drawn) [Compound 54, N-(3-(9H-Carbazol-9-yl)-2-hydroxypropyl)-N-phenethylmethanesulfonamide] | 824
COC(=O)N1CCCC(N(CC(O)Cn2c3ccccc3c3ccccc32)S(C)(=O)=O)C1 (stereo not drawn) [Compound 130, Methyl 3-(N-(3-(9H-carbazol-9-yl)-2-hydroxypropyl)methylsulfonamido)piperidine-1-carboxylate] | 636
CC(O)(CN(c1ccccc1)S(C)(=O)=O)Cn1c2ccc(F)cc2c2cc(F)ccc21 (stereo not drawn) [Compound 215, N-(3-(3,6-Difluoro-9H-carbazol-9-yl)-2-hydroxy-2-methylpropyl)-N-phenylmethanesulfonamide] | 7880
CC(C)N(CC(O)Cn1c2ccccc2c2ccccc21)S(C)(=O)=O (stereo not drawn) [Compound 46, N-(3-(9H-Carbazol-9-yl)-2-hydroxypropyl)-N-isopropylmethanesulfonamide] | 100
CCOc1ccc(N(CC(O)Cn2c3ccc(F)cc3c3cc(F)ccc32)S(C)(=O)=O)cc1 (stereo not drawn) [Compound 202, N-(3-(3,6-Difluoro-9H-carbazol-9-yl)-2-hydroxypropyl)-N-(4-ethoxyphenyl)methanesulfonamide] | 2100
CS(=O)(=O)N(Cc1ccccc1F)CC(O)Cn1c2ccccc2c2ccccc21 (stereo not drawn) [Compound 68, N-(3-(9H-Carbazol-9-yl)-2-hydroxypropyl)-N-(2-fluorobenzyl)methanesulfonamide] | 1990
CS(=O)(=O)N(CC(O)Cn1c2ccc(F)cc2c2ccc(F)cc21)C1CCC1 (stereo not drawn) [Compound 166, N-Cyclobutyl-N-(3-(2,6-difluoro-9H-carbazol-9-yl)-2-hydroxypropyl)methanesulfonamide] | 147
CS(=O)(=O)N(CC(O)Cn1c2ccccc2c2ccccc21)C1(C(F)(F)F)CCC1 (stereo not drawn) [Compound 146, N-(3-(9H-Carbazol-9-yl)-2-hydroxypropyl)-N-(1-(trifluoromethyl)cyclobutyl)methanesulfonamide] | 1160
CS(=O)(=O)N(CC(O)Cn1c2ccccc2c2ccccc21)c1cccc2ccccc12 (stereo not drawn) [Compound 27, N-(3-(9H-Carbazol-9-yl)-2-hydroxypropyl)-N-(naphthalen-1-yl)methanesulfonamide] | 250
O=S1(=O)CCCN1CC(O)Cn1c2cc(F)ccc2c2c(F)cccc21 (stereo not drawn) [Compound 97, N-(3-(2,5-Difluoro-9H-carbazol-9-yl)-2-hydroxypropyl)-isothiazolidine-1,1-dioxide] | 319
CC(O)(CN1CCCN(C2CCCCC2)S1(=O)=O)Cn1c2ccc(F)cc2c2cc(F)ccc21 (stereo not drawn) [Compound 223, 2-(3-(3,6-Difluoro-9H-carbazol-9-yl)-2-hydroxy-2-methylpropyl)-6-cyclohexyl-1,2,6-thiadiazinane-1,1-dioxide] | 6790
COC1CCCC(N(CC(O)Cn2c3ccc(F)cc3c3cc(F)ccc32)S(C)(=O)=O)C1 (stereo not drawn) [Compound 198, N-(3-(3,6-Difluoro-9H-carbazol-9-yl)-2-hydroxypropyl)-N-(3-methoxycyclohexyl)methanesulfonamide] | 1230
CN(CC(O)Cn1c2ccc(F)cc2c2ccc(F)cc21)S(C)(=O)=O (stereo not drawn) [Compound 103, N-(3-(2,6-Difluoro-9H-carbazol-9-yl)-2-hydroxypropyl)-N-methylmethanesulfonamide] | 2210

Structure (SMILES) | EC50 [nM]
CS(=O)(=O)NCC(O)Cn1c2ccc(F)cc2c2cc(F)ccc21 (stereo not drawn) [Compound 154, N-(3-(3,6-Difluoro-9H-carbazol-9-yl)-2-hydroxypropyl)methanesulfonamide] | 680
COCCCS(=O)(=O)N(Cc1ccco1)CC(O)Cn1c2ccccc2c2ccccc21 (stereo not drawn) [Compound 9, N-(3-(9H-Carbazol-9-yl)-2-hydroxypropyl)-N-(furan-2-ylmethyl)-3-methoxypropane-1-sulfonamide] | 2860
CC(=O)Nc1ccc(N(CC(O)Cn2c3ccccc3c3ccccc32)S(C)(=O)=O)cc1 (stereo not drawn) [Compound 29, N-(4-(N-(3-(9H-Carbazol-9-yl)-2-hydroxypropyl)methylsulfonamido)phenyl)acetamide] | 710
CCN1CCCN(CC(O)Cn2c3ccc(F)cc3c3cc(F)ccc32)S1(=O)=O (stereo not drawn) [Compound 226, 2-(3-(3,6-Difluoro-9H-carbazol-9-yl)-2-hydroxypropyl)-6-ethyl-1,2,6-thiadiazinane-1,1-dioxide] | 314
CS(=O)(=O)N(CC(O)Cn1c2ccccc2c2ccccc21)CC1CCCO1 (stereo not drawn) [Compound 51, N-(3-(9H-Carbazol-9-yl)-2-hydroxypropyl)-N-((tetrahydrofuran-2-yl)methyl)methanesulfonamide] | 371
O=S1(=O)CCCCN1CC(O)Cn1c2ccc(F)cc2c2cc(F)ccc21 (stereo not drawn) [Compound 86, N-(3-(3,6-Difluoro-9H-carbazol-9-yl)-2-hydroxypropyl)-1,2-thiazinane 1,1-dioxide] | 46
Cc1ccc(S(=O)(=O)N(C)c2ccc(N(CC(O)Cn3c4ccccc4c4ccccc43)S(C)(=O)=O)cc2)cc1 (stereo not drawn) [Compound 31, N-(4-(N-(3-(9H-Carbazol-9-yl)-2-hydroxypropyl)methylsulfonamido)phenyl)-N,4-dimethylbenzenesulfonamide] | 1400
O=S(=O)(N(Cc1ccco1)CC(O)Cn1c2ccccc2c2ccccc21)C(F)(F)F (stereo not drawn) [Compound 83, N-(3-(9H-Carbazol-9-yl)-2-hydroxypropyl)-1,1,1-trifluoro-N-(furan-2-ylmethyl)methanesulfonamide] | 413
CCN1CCCN(CC(C)(O)Cn2c3ccc(F)cc3c3cc(F)ccc32)S1(=O)=O (stereo not drawn) [Compound 227, 2-(3-(3,6-Difluoro-9H-carbazol-9-yl)-2-hydroxy-2-methylpropyl)-6-ethyl-1,2,6-thiadiazinane-1,1-dioxide] | 5290
CC1(N(CC(O)Cn2c3ccccc3c3ccccc32)S(C)(=O)=O)CC1 (stereo not drawn) [Compound 137, N-(3-(9H-Carbazol-9-yl)-2-hydroxypropyl)-N-(1-methylcyclopropyl)methanesulfonamide] | 76
CN(CC(O)Cn1c2ccccc2c2ccccc21)S(C)(=O)=O (stereo not drawn) [Compound 32, N-(3-(9H-Carbazol-9-yl)-2-hydroxypropyl)-N-methylmethanesulfonamide] | 100
O=S1(=O)CCCN1CC(O)Cn1c2cccc(F)c2c2c(F)cccc21 (stereo not drawn) [Compound 106, N-(3-(4,5-Difluoro-9H-carbazol-9-yl)-2-hydroxypropyl)-isothiazolidine-1,1-dioxide] | 8600
CS(=O)(=O)N(CC(O)Cn1c2ccc(F)cc2c2cc(F)ccc21)c1ccc(-c2cc[nH]n2)cc1 (stereo not drawn) [Compound 214, N-(4-(1H-Pyrazol-3-yl)phenyl)-N-(3-(3,6-difluoro-9H-carbazol-9-yl)-2-hydroxypropyl)methanesulfonamide] | 6560
CC(C)CN(CC(O)Cn1c2ccccc2c2ccccc21)S(C)(=O)=O (stereo not drawn) [Compound 49, N-(3-(9H-Carbazol-9-yl)-2-hydroxypropyl)-N-isobutylmethanesulfonamide] | 100
CS(=O)(=O)N(Cc1ccccc1)CC(O)Cn1c2ccccc2c2ccccc21 (stereo not drawn) [Compound 44, N-(3-(9H-Carbazol-9-yl)-2-hydroxypropyl)-N-benzylmethanesulfonamide] | 8270
CCCN(CC(O)Cn1c2ccc(F)cc2c2ccc(F)cc21)S(C)(=O)=O (stereo not drawn) [Compound 163, N-(3-(2,6-Difluoro-9H-carbazol-9-yl)-2-hydroxypropyl)-N-propylmethanesulfonamide] | 206
CS(=O)(=O)CCN(CC(O)Cn1c2ccccc2c2ccccc21)S(C)(=O)=O (stereo not drawn) [Compound 55, N-(3-(9H-Carbazol-9-yl)-2-hydroxypropyl)-N-(2-(methylsulfonyl)ethyl)methanesulfonamide] | 2310

Same assay, conditions: stable U2OS reporter cells harboring Per2-dLuc; luminescence monitored over 4-5 days at 35° C.

Structure (SMILES) | EC50 [nM]
CC1CCCC1N(CC(O)Cn1c2ccc(F)cc2c2cc(F)ccc21)S(C)(=O)=O (single isomer, unassigned) [Compound 193B, N-(3-(3,6-Difluoro-9H-carbazol-9-yl)-2-hydroxypropyl)-N-(2-methylcyclopentyl)methanesulfonamide] | 654
